Measured values reported in US10040781B2, “Tank-binding kinase inhibitor compounds” (Gilead Sciences, Inc., priority 2014, dated 2018).

Key:
IKKε = IKKε (Homo sapiens (Human), UniProt Q14164); experiment: IKKε TR-FRET enzymatic assay; type: biochemical; settings: TR-FRET, 2×Km ATP; geometric mean of minimum four determinations; read-out: IKKe IC50
hJAK2 = hJAK2 (Homo sapiens (Human), UniProt O60674); experiment: hJAK2 LANCE TR-FRET enzymatic assay; type: biochemical; settings: read-out: JAK2 IC50
hJAK2, sequence (O60674 whole entry): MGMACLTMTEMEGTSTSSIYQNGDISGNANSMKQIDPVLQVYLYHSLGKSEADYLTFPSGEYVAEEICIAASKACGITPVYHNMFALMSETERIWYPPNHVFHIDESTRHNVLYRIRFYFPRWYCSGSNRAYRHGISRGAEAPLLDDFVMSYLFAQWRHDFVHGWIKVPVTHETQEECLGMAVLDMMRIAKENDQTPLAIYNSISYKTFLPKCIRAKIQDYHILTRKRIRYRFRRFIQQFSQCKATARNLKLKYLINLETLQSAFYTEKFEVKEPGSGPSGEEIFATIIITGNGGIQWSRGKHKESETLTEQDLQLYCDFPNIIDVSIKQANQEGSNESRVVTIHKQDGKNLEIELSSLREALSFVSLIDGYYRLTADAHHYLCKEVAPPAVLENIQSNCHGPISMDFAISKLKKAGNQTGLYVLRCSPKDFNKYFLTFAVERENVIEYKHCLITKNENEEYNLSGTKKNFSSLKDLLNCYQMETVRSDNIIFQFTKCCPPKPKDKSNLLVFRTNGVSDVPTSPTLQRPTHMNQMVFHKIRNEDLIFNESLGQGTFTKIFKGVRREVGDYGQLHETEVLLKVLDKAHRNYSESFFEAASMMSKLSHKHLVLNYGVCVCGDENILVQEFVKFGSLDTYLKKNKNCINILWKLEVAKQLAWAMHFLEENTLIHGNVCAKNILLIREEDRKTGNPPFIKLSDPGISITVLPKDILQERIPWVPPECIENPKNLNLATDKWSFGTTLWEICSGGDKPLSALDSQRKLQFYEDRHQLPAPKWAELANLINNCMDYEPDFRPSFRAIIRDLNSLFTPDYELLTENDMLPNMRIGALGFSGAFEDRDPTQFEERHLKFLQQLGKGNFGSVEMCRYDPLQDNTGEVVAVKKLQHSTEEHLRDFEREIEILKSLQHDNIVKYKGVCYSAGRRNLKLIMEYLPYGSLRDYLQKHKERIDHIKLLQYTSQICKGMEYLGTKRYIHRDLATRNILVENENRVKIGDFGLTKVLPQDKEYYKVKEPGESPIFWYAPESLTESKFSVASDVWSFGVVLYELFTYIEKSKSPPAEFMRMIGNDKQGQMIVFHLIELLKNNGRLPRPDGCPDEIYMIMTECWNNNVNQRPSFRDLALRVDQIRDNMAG

TBK1 = TBK1 (Homo sapiens (Human), UniProt Q9UHD2); experiment: TBK1 TR-FRET enzymatic assay;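 further: phosphorylation of a biotinylated Ser/Thr peptide by purified full-length recombinant TBK1, read by TR-FRET after 240 min at 25 °C, IC50 is the geometric mean of at least four runs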
TBK1, sequence (Q9UHD2 whole entry): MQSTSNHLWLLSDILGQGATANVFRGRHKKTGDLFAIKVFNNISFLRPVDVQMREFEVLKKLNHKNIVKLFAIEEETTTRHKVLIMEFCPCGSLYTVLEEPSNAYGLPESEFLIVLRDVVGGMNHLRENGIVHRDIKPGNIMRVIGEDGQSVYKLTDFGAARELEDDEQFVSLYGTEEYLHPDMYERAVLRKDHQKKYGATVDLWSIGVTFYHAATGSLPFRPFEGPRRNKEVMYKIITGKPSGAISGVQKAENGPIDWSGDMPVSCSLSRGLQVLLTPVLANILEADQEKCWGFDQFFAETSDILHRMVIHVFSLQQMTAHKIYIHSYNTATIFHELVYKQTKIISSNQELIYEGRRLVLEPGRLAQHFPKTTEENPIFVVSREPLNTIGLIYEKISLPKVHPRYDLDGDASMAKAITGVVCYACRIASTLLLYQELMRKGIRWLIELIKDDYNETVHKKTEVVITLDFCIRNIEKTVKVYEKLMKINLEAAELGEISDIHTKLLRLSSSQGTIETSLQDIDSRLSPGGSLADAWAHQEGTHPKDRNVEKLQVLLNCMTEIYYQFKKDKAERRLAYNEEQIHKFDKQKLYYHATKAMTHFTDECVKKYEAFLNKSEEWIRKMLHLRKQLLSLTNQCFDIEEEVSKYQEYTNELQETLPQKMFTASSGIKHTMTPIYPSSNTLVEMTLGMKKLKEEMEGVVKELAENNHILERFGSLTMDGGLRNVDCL

IKKε, sequence (Q14164 whole entry): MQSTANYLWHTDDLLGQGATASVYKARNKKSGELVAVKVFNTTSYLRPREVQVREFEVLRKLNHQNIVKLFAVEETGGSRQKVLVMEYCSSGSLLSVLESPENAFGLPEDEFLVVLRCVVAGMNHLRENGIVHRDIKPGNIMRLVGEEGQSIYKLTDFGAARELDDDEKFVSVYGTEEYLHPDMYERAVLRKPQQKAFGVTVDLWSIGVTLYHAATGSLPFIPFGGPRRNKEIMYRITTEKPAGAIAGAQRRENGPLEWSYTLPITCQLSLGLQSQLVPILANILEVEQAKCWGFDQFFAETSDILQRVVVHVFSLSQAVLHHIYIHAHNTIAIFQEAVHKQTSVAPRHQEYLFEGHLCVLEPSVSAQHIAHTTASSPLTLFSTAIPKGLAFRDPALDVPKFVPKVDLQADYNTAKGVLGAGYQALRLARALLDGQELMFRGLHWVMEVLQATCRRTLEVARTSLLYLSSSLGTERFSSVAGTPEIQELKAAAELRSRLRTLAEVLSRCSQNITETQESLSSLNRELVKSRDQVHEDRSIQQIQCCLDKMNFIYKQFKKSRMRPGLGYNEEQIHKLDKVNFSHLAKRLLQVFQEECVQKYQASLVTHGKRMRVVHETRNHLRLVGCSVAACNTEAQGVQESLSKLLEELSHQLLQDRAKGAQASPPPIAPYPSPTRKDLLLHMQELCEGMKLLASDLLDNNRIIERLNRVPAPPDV

Row | Compound | IC50 (IKKε) | IC50 (hJAK2) | IC50 (TBK1)
1 | Cc1nnc(C(=O)N2CC[C@H](Oc3ccc(-c4ncnc(Nc5cnn(C(C)(C)C)c5)n4)cc3C#N)[C@H](F)C2)[nH]1 [Example 418, 5-(4-((1-(tert-butyl)-1H-pyrazol-4-yl)amino)-1,3,5-triazin-2-yl)-2-(((3R,4S)-3-fluoro-1-(5-methyl-4H-1,2,4-triazole-3-carbonyl)piperidin-4-yl)oxy)benzonitrile] | 2 nM | 212 nM | 4 nM
2 | CC(C)(C)n1cc(Nc2ncnc(-c3ccc(O[C@H]4CCN(C(=O)[C@@H](O)CO)C[C@H]4F)c(C#N)c3)n2)cn1 [Example 419, 5-(4-((1-(tert-butyl)-1H-pyrazol-4-yl)amino)-1,3,5-triazin-2-yl)-2-(((3R,4S)-1-((S)-2,3-dihydroxypropanoyl)-3-fluoropiperidin-4-yl)oxy)benzonitrile] | 2 nM | 228 nM | 2 nM
3 | CN1CC(Oc2ccc(-c3ncnc(Nc4ccc(N5CCN(C6COC6)CC5)cc4)n3)cc2C#N)CNC1=O (stereo not drawn) [Example 421, 2-((1-methyl-2-oxohexahydropyrimidin-5-yl)oxy)-5-(4-((4-(4-(oxetan-3-yl)piperazin-1-yl)phenyl)amino)-1,3,5-triazin-2-yl)benzonitrile] | 156 nM | 60 nM | 80 nM
4 | CN1CC(Oc2ccc(-c3ncnc(Nc4ccc(N5CCN(C6COC6)CC5)cc4)n3)cc2C#N)CCC1=O (stereo not drawn) [Example 422, 2-((1-methyl-6-oxopiperidin-3-yl)oxy)-5-(4-((4-(4-(oxetan-3-yl)piperazin-1-yl)phenyl)amino)-1,3,5-triazin-2-yl)benzonitrile] | 156 nM | 849 nM | 65 nM
5 | N#Cc1cc(-c2ncnc(Nc3ccc(N4CCN(C5COC5)CC4)cc3)n2)ccc1O[C@H]1CCN(C(=O)N2CC[C@@H](O)C2)C[C@H]1F [Example 425, 2-(((3R,4S)-3-fluoro-1-((R)-3-hydroxypyrrolidine-1-carbonyl)piperidin-4-yl)oxy)-5-(4-((4-(4-(oxetan-3-yl)piperazin-1-yl)phenyl)amino)-1,3,5-triazin-2-yl)benzonitrile] | 21 nM | 590 nM | 7 nM
6 | N#Cc1cc(-c2ncnc(Nc3ccc(N4CCN(C5COC5)CC4)cc3)n2)ccc1O[C@H]1CCN(C(=O)N2CC[C@H](O)C2)C[C@H]1F [Example 426, 2-(((3R,4S)-3-fluoro-1-((S)-3-hydroxypyrrolidine-1-carbonyl)piperidin-4-yl)oxy)-5-(4-((4-(4-(oxetan-3-yl)piperazin-1-yl)phenyl)amino)-1,3,5-triazin-2-yl)benzonitrile] | 201 nM | ≥ 1000 nM | 79 nM
7 | CN(CCO)C(=O)N1CC[C@H](Oc2ccc(-c3ncnc(Nc4ccc(N5CCN(C6COC6)CC5)cc4)n3)cc2C#N)[C@H](F)C1 [Example 428, (3R,4S)-4-(2-cyano-4-(4-((4-(4-(oxetan-3-yl)piperazin-1-yl)phenyl)amino)-1,3,5-triazin-2-yl)phenoxy)-3-fluoro-N-(2-hydroxyethyl)-N-methylpiperidine-1-carboxamide] | 64 nM | ≥ 1000 nM | 41 nM
8 | N#Cc1cc(-c2ncnc(Nc3ccc(N4CCN(C5COC5)CC4)cc3)n2)ccc1O[C@H]1CCN(C(=O)NCCO)C[C@H]1F [Example 429, (3R,4S)-4-(2-cyano-4-(4-((4-(4-(oxetan-3-yl)piperazin-1-yl)phenyl)amino)-1,3,5-triazin-2-yl)phenoxy)-3-fluoro-N-(2-hydroxyethyl)piperidine-1-carboxamide] | 33 nM | 601 nM | 12 nM
9 | N#Cc1cc(-c2ncnc(Nc3ccc(N4CCN(C5COC5)CC4)cc3)n2)ccc1O[C@@H]1CCN(C(=O)c2nc(=O)[nH][nH]2)C1 [Example 435, (R)-5-(4-((4-(4-(oxetan-3-yl)piperazin-1-yl)phenyl)amino)-1,3,5-triazin-2-yl)-2-((1-(5-oxo-2,5-dihydro-1H-1,2,4-triazole-3-carbonyl)pyrrolidin-3-yl)oxy)benzonitrile] | 292 nM | ≥ 1000 nM | 411 nM
10 | CC1(C)CNC[C@@H](F)[C@H]1Oc1ccc(-c2ncnc(Nc3ccc(N4CCN(C5COC5)CC4)cc3)n2)cc1C#N [Example 440, 2-(((4S,5R)-5-fluoro-3,3-dimethylpiperidin-4-yl)oxy)-5-(4-((4-(4-(oxetan-3-yl)piperazin-1-yl)phenyl)amino)-1,3,5-triazin-2-yl)benzonitrile] | 51 nM | 110 nM | 22 nM
11 | Cn1cc(C(=O)N2C[C@@H](F)[C@@H](Oc3ccc(-c4ncnc(Nc5ccc(N6CCN(C7COC7)CC6)cc5)n4)cc3C#N)C(C)(C)C2)nn1 [Example 441, 2-(((4S,5R)-5-fluoro-3,3-dimethyl-1-(1-methyl-1H-1,2,3-triazole-4-carbonyl)piperidin-4-yl)oxy)-5-(4-((4-(4-(oxetan-3-yl)piperazin-1-yl)phenyl)amino)-1,3,5-triazin-2-yl)benzonitrile] | 2 nM | 88 nM | 3 nM
12 | CC1(C)CN(C(=O)c2ccn[nH]2)C[C@@H](F)[C@H]1Oc1ccc(-c2ncnc(Nc3ccc(N4CCN(C5COC5)CC4)cc3)n2)cc1C#N [Example 442, 2-(((4S,5R)-5-fluoro-3,3-dimethyl-1-(1H-pyrazole-5-carbonyl)piperidin-4-yl)oxy)-5-(4-((4-(4-(oxetan-3-yl)piperazin-1-yl)phenyl)amino)-1,3,5-triazin-2-yl)benzonitrile] | 3 nM | 125 nM | 3 nM
13 | CC1(C)CN(C(=O)CCO)C[C@@H](F)[C@H]1Oc1ccc(-c2ncnc(Nc3ccc(N4CCN(C5COC5)CC4)cc3)n2)cc1C#N [Example 443, 2-(((4S,5R)-5-fluoro-1-(3-hydroxypropanoyl)-3,3-dimethylpiperidin-4-yl)oxy)-5-(4-((4-(4-(oxetan-3-yl)piperazin-1-yl)phenyl)amino)-1,3,5-triazin-2-yl)benzonitrile] | 6 nM | 102 nM | 3 nM
14 | N#Cc1cc(-c2ncnc(Nc3ccc(N4CCN(C5COC5)CC4)cc3)n2)ccc1OC1CNC(=O)C(F)(F)C1 (stereo not drawn) [Example 446, 2-((5,5-difluoro-6-oxopiperidin-3-yl)oxy)-5-(4-((4-(4-(oxetan-3-yl)piperazin-1-yl)phenyl)amino)-1,3,5-triazin-2-yl)benzonitrile] | 33 nM | 153 nM | 48 nM

The remaining compounds from weak to strong by IC50 (IKKε), led by results:

Row | IC50 (IKKε) | IC50 (hJAK2) | IC50 (TBK1) | Compound
15 | 283 nM | ≥ 1000 nM | 76 nM | C[C@@H](N)C(=O)N1CC[C@H](Oc2ccc(-c3ncnc(Nc4ccc(N5CCN(C6COC6)CC5)cc4)n3)cc2C#N)[C@H](F)C1 [Example 433, 2-(((3R,4S)-1-((R)-2-aminopropanoyl)-3-fluoropiperidin-4-yl)oxy)-5-(4-((4-(4-(oxetan-3-yl)piperazin-1-yl)phenyl)amino)-1,3,5-triazin-2-yl)benzonitrile]
16 | 88 nM | 476 nM | 27 nM | CC1(C)CN(C(=O)[C@@H]2CCC(=O)N2)C[C@H](F)[C@@H]1Oc1ccc(-c2ncnc(Nc3ccc(N4CCN(C5COC5)CC4)cc3)n2)cc1C#N [Example 444]
17 | 74 nM | ≥ 1000 nM | 31 nM | COCCNC(=O)N1CC[C@H](Oc2ccc(-c3ncnc(Nc4ccc(N5CCN(C6COC6)CC5)cc4)n3)cc2C#N)[C@H](F)C1 [Example 427, (3R,4S)-4-(2-cyano-4-(4-((4-(4-(oxetan-3-yl)piperazin-1-yl)phenyl)amino)-1,3,5-triazin-2-yl)phenoxy)-3-fluoro-N-(2-methoxyethyl)piperidine-1-carboxamide]
18 | 55 nM | 681 nM | 16 nM | N#Cc1cc(-c2ncnc(Nc3ccc(N4CCN(C5COC5)CC4)cc3)n2)ccc1O[C@H]1CCN(C(=O)N2CC[C@@H](F)C2)C[C@H]1F [Example 423, 2-(((3R,4S)-3-fluoro-1-((R)-3-fluoropyrrolidine-1-carbonyl)piperidin-4-yl)oxy)-5-(4-((4-(4-(oxetan-3-yl)piperazin-1-yl)phenyl)amino)-1,3,5-triazin-2-yl)benzonitrile]
19 | 17 nM | 496 nM | 11 nM | C[C@H](O)C(=O)N1C[C@@H](C)[C@H](Oc2ccc(-c3ncnc(Nc4ccc(N5CCN(C6COC6)CC5)cc4)n3)cc2C#N)C(F)(F)C1 [Example 431, trans-2-((3,3-difluoro-1-((S)-2-hydroxypropanoyl)-5-methylpiperidin-4-yl)oxy)-5-(4-((4-(4-(oxetan-3-yl)piperazin-1-yl)phenyl)amino)-1,3,5-triazin-2-yl)benzonitrile]
20 | 12 nM | ≥ 1000 nM | 6 nM | N#Cc1cc(-c2ncnc(Nc3ccc(N4CCN(C5COC5)CC4)cc3)n2)ccc1O[C@H]1CCN(C(=O)N2CCCC2)C[C@H]1F [Example 424, 2-(((3R,4S)-3-fluoro-1-(pyrrolidine-1-carbonyl)piperidin-4-yl)oxy)-5-(4-((4-(4-(oxetan-3-yl)piperazin-1-yl)phenyl)amino)-1,3,5-triazin-2-yl)benzonitrile]
21 | 5 nM | 90 nM | 5 nM | CC1(C)CN(C(=O)[C@@H]2CCC(=O)N2)C[C@@H](F)[C@H]1Oc1ccc(-c2ncnc(Nc3ccc(N4CCN(C5COC5)CC4)cc3)n2)cc1C#N [Example 445, 2-(((4S,5R)-5-fluoro-3,3-dimethyl-1-((S)-5-oxopyrrolidine-2-carbonyl)piperidin-4-yl)oxy)-5-(4-((4-(4-(oxetan-3-yl)piperazin-1-yl)phenyl)amino)-1,3,5-triazin-2-yl)benzonitrile]
22 | 2 nM | 190 nM | 2 nM | CC(C)(C)n1cc(Nc2ncnc(-c3ccc(O[C@H]4CCN(C(=O)CO)C[C@H]4F)c(C#N)c3)n2)cn1 [Example 420, 5-(4-((1-(tert-butyl)-1H-pyrazol-4-yl)amino)-1,3,5-triazin-2-yl)-2-(((3R,4S)-3-fluoro-1-(2-hydroxyacetyl)piperidin-4-yl)oxy)benzonitrile]
